According to ChEMBL document CHEMBL1128587, “Structure-based inhibitors of influenza virus sialidase. A benzoic acid lead with novel interaction” (J Med Chem, 1995):

How the values were obtained:
Format in all cases: functional, organism-based
[1] = system: Influenza B virus; assay: The compound was tested in vitro for the inhibitory concentration against influenza B/Mem/89 sialidase from whole virus by MUN assay
[2] = system: Influenza B virus; assay: The compound was tested in vitro for the inhibitory concentration against influenza B/Mem/89 sialidase from whole virus by fetuin assay
[3] = system: Influenza A virus; assay: The compound was tested in vitro for the inhibitory concentration against influenza N2 sialidase from whole virus by MUN assay
[4] = system: Influenza A virus; assay: The compound was tested in vitro for the inhibitory concentration against influenza N2 sialidase from whole virus by fetuin assay

Structure (SMILES)	IC50 [1]	IC50 [2]	IC50 [3]	IC50 [4]
CC(=O)Nc1ccc(C(=O)O)cc1OC(C)=O	> 10 mM	5 mM	> 10 mM	10 mM
CC(=O)Nc1c(N)cc(C(=O)O)cc1O	10 mM	> 10 mM	> 10 mM	> 10 mM
CC(=O)Nc1ccc(C(=O)O)cc1N	> 20 mM	–	> 10 mM	> 10 mM
CC(=O)NC1C(O)CC(O)(C(=O)O)OC1[C@H](O)[C@H](O)CO (stereo partly drawn)	> 10 mM	–	–	–
CC(=O)Nc1ccc(C(=O)O)cc1NC(=O)CCCN	> 10 mM	> 10 mM	> 10 mM	> 10 mM
CC(=O)Nc1ccc(C(=O)O)cc1[N+](=O)[O-]	5 mM	5 mM	5 mM	5 mM
CC(=O)Nc1cc([N+](=O)[O-])c(C(=O)O)c([N+](=O)[O-])c1O	1 mM	4 mM	1 mM	3 mM
CC(=O)Nc1c(OC(C)=O)cc(C(=O)O)cc1[N+](=O)[O-]	2 mM	4 mM	5 mM	3 mM
CC(=O)Nc1c(O)cc(C(=O)O)cc1[N+](=O)[O-]	0.75 mM	1 mM	0.75 mM	1 mM
CC(=O)Nc1ccc(C(=O)O)cc1NC(=O)CO	3 mM	10 mM	4 mM	> 10 mM
CC(=O)Nc1ccc(C(=O)O)cc1NC(=O)C(O)CO (stereo not drawn)	8 mM	> 10 mM	5 mM	4 mM
CC(=O)Nc1ccc(C(=O)O)cc1O [3-HYDROXY-4-ACETYLAMINOBENZOIC ACID]	> 10 mM	10 mM	> 10 mM	10 mM
CC(=O)N[C@H]1[C@H]([C@H](O)[C@H](O)CO)OC(C(=O)O)=C[C@@H]1O [NEU5AC2EN]	0.015 mM	0.015 mM	0.015 mM	0.015 mM
